ChEMBL document CHEMBL5303304, “EUbOPEN Chemogenomics Library - IncuCyte” (2023)

What was measured:
Format in all cases: toxicity, cell-based
[1] = test system: HEK-293T; experiment: Incucyte cell viability with HEK293T; conditions: human, 10 µM, compound concentration 10 uM
[2] = test system: U2OS; experiment: Incucyte cell viability with U2OS; conditions: human, 10 µM, compound concentration 10 uM
[3] = test system: Fibroblast; experiment: Incucyte cell viability with human fibroblast; conditions: 10 µM, compound concentration 10 uM
Further: unitless GR value; below 1 slowed growth and below 0 cell loss.

SMILES	Growth Rate ([1]; 6 h, replicate number 1)	Growth Rate ([1]; 12 h, replicate number 2)	Growth Rate ([1]; 18 h, replicate number 2)	Growth Rate ([1]; 24 h, replicate number 2)	Growth Rate ([2]; 0 h, replicate number 2)	Growth Rate ([2]; 6 h, replicate number 1)	Growth Rate ([2]; 6 h, replicate number 2)	Growth Rate ([2]; 12 h, replicate number 1)	Growth Rate ([2]; 12 h, replicate number 2)	Growth Rate ([2]; 18 h, replicate number 1)	Growth Rate ([2]; 18 h, replicate number 2)	Growth Rate ([2]; 24 h, replicate number 1)	Growth Rate ([2]; 24 h, replicate number 2)	Growth Rate ([3]; 6 h, replicate number 2)	Growth Rate ([3]; 12 h, replicate number 2)	Growth Rate ([3]; 18 h, replicate number 1)	Growth Rate ([3]; 18 h, replicate number 2)	Growth Rate ([3]; 24 h, replicate number 2)	Growth Rate ([3]; 6 h, replicate number 1)	Growth Rate ([3]; 12 h, replicate number 1)	also measured
CC(C)c1ccc(CC(=O)N[C@H](C)c2ccc(OCC(F)(F)F)cn2)cc1 [SUVECALTAMIDE]	0.16	0.87	0.95	0.8	0.67	-0.32	0.56	0.59	0.89	0.76	0.86	0.78	0.9	-1	0.94	0.11	0.84	0.74	–	–	Growth Rate ([1]; 0 h, replicate number 2): 0.85; Growth Rate ([3]; 0 h, replicate number 1): -0.55
Cc1ncc(C(=O)Nc2cc(C(C)(C)C)on2)cc1-n1cc(-c2cnn(C)c2C)nn1.Cl	0.99	–	–	–	–	0.8	0.94	–	–	–	0.92	–	0.58	0.14	0.79	–	–	0.95	0.69	0.95	Growth Rate ([1]; 0 h, replicate number 1): -0.6; Growth Rate ([1]; 6 h, replicate number 2): 0.65; Growth Rate ([3]; 0 h, replicate number 1): 0.92; Growth Rate ([3]; 0 h, replicate number 2): 0.23
CN1CCCN(C(=O)c2cccc(-c3ccc(/C=C4/C(=O)Nc5ccc(Cl)cc54)o3)c2)CC1	-0.69	-0.63	-0.49	-0.47	-0.78	-0.67	-0.6	-0.7	-0.54	-0.53	-0.44	-0.48	-0.42	-0.94	-0.82	-0.74	-0.72	-0.63	-0.99	-0.83	Growth Rate ([1]; 0 h, replicate number 2): -1; Growth Rate ([1]; 6 h, replicate number 2): -0.67; Growth Rate ([1]; 12 h, replicate number 1): -0.6; Growth Rate ([1]; 18 h, replicate number 1): -0.51; Growth Rate ([1]; 24 h, replicate number 1): -0.45; Growth Rate ([3]; 24 h, replicate number 1): -0.67
CC(=O)c1c(C)c2cnc(Nc3ccc(N4CCN(CCOCCOCCOCCNC(=O)COc5cccc6c5C(=O)N(C5CCC(=O)NC5=O)C6=O)CC4)cn3)nc2n(C2CCCC2)c1=O (stereo not drawn)	–	–	–	–	–	–	–	0.99	0.93	–	–	–	–	–	0.92	–	–	0.89	–	–	Growth Rate ([1]; 0 h, replicate number 1): 0.95; Growth Rate ([3]; 0 h, replicate number 2): 0.18
CCCS(=O)(=O)Nc1ccc(F)c(Nc2ncnc3cnc(-n4cnc(C)c4)nc23)c1F	–	0.72	0.73	0.8	–	0.75	0.61	0.7	0.63	0.78	0.84	0.97	0.67	0.4	0.62	0.53	0.69	0.77	0.75	0.52	Growth Rate ([1]; 0 h, replicate number 1): -0.79; Growth Rate ([1]; 6 h, replicate number 2): 0.5; Growth Rate ([1]; 12 h, replicate number 1): 0.77; Growth Rate ([1]; 18 h, replicate number 1): 0.75; Growth Rate ([1]; 24 h, replicate number 1): 0.71; Growth Rate ([3]; 0 h, replicate number 1): -0.99; Growth Rate ([3]; 24 h, replicate number 1): 0.53
CCC(=O)Nc1cc(Nc2cc(NC3CC3)n3ncc(C#N)c3n2)ccc1C	0.87	0.59	0.83	0.83	–	0.24	0.61	0.12	0.52	0.39	0.54	0.44	0.53	0.41	0.67	0.33	0.61	0.85	0.76	0.46	Growth Rate ([1]; 0 h, replicate number 2): -0.72; Growth Rate ([1]; 6 h, replicate number 2): 0.94; Growth Rate ([1]; 12 h, replicate number 1): 0.79; Growth Rate ([1]; 18 h, replicate number 1): 0.79; Growth Rate ([1]; 24 h, replicate number 1): 0.81; Growth Rate ([2]; 0 h, replicate number 1): -1; Growth Rate ([3]; 24 h, replicate number 1): 0.48
C[C@@H](c1ccc(F)cc1)n1nnc2cnc3ccc(-c4ccc5ocnc5c4)cc3c21	–	0.99	–	–	0.17	–	–	–	–	0.87	–	0.82	–	0.8	–	0.35	–	–	-0.77	-0.93	Growth Rate ([1]; 6 h, replicate number 2): 0.07; Growth Rate ([2]; 0 h, replicate number 1): -0.74; Growth Rate ([3]; 0 h, replicate number 1): 0.85; Growth Rate ([3]; 0 h, replicate number 2): -0.11; Growth Rate ([3]; 24 h, replicate number 1): 1
CC1(C)C(=O)N([C@H]2CCc3c(O)cccc32)c2nc(Nc3cccc(CN4CCCC4)c3)ncc21	-0.69	-0.41	-0.35	-0.32	0.2	0.38	-0.15	0.05	-0.3	-0.08	-0.3	-0.27	-0.38	-0.63	-0.57	-0.44	-0.52	-0.52	-0.49	-0.4	Growth Rate ([1]; 0 h, replicate number 2): -1; Growth Rate ([1]; 6 h, replicate number 2): -0.56; Growth Rate ([1]; 12 h, replicate number 1): -0.53; Growth Rate ([1]; 18 h, replicate number 1): -0.36; Growth Rate ([1]; 24 h, replicate number 1): -0.28; Growth Rate ([2]; 0 h, replicate number 1): -0.88; Growth Rate ([3]; 24 h, replicate number 1): -0.42
Cl.Cl.Fc1ccc([C@@H]2CCNC[C@H]2COc2ccc3c(c2)OCO3)cc1.Fc1ccc([C@@H]2CCNC[C@H]2COc2ccc3c(c2)OCO3)cc1.O [PAROXETINE HYDROCHLORIDE]	0.25	–	–	0.86	-1	0.82	0.89	–	0.84	–	0.89	–	0.98	-1	0.54	–	0.59	0.62	-0.26	-1	–
COc1ccccc1S(=O)(=O)Nc1ccc2c(c1)CN(C)C(=O)N2	–	–	0.98	0.9	-0.75	0.81	0.5	0.83	–	–	–	–	–	-0.15	0.42	0.37	0.7	–	0.3	0.4	Growth Rate ([1]; 0 h, replicate number 1): 0.51; Growth Rate ([1]; 0 h, replicate number 2): -0.37; Growth Rate ([2]; 0 h, replicate number 1): -0.66; Growth Rate ([3]; 0 h, replicate number 2): 0.57; Growth Rate ([3]; 24 h, replicate number 1): 0.79
